Measurements: patent US10508104B2, “6-hydroxy-5-(phenyl/heteroarylsulfonyl)pyrimidin-4(1H)-one as APJ agonists” (Bristol-Myers Squibb Company, priority 2016, dated 2019)
Like-named read-outs stand apart in the source and are kept apart here.

Target: human APJ receptor (Homo sapiens (Human), UniProt P35414)
Assay: Intracellular cAMP accumulation assay (APJ hcAMP, HTRF)
Type: cell-based
Details: read-out: Human APJ cAMP EC50 Potency range
Procedure: Intracellular cAMP Accumulation Assay
HEK293 cells stably expressing human APJ receptor were used to assess the activity of compounds. Cultured cells were detached and resuspended in the cAMP Homogeneous Time-Resolved Fluorescence (HTRF) assay buffer (Cisbio cat; #62AM4PEJ). The assay was performed in 384-well assay plates (Perkin-Elmer; cat #6008289) according to assay protocol provided by the manufacturer. Serial dilutions of a compound together with assay buffer containing […] and 2 μM forskolin were added to each well containing 5,000 cells and incubated for 30 minutes at room temperature. Subsequently, cAMP D2 reagent was added in the lysis buffer followed by the EuK antibody (Cisbio; cat #62AM4PEJ) and incubated for 60 min. The fluorescence emission ratio was measured using fluorometer. The intracellular cAMP concentrations (compound-stimulated inhibition of forskolin-mediated cAMP production) were calculated by extrapolation from a standard curve using known cAMP concentrations. The EC50 values were obtained by fitting the data to a sigmoidal concentration-response curve with variable slope.
The EC50 value of each compound is presented at the end of the example description.
The biological activity of the exemplified compounds of this invention determined by the assay described above is shown at the end of each example.

[1] = human APJ, intracellular cAMP accumulation

Sequence of human APJ receptor (P35414 whole entry): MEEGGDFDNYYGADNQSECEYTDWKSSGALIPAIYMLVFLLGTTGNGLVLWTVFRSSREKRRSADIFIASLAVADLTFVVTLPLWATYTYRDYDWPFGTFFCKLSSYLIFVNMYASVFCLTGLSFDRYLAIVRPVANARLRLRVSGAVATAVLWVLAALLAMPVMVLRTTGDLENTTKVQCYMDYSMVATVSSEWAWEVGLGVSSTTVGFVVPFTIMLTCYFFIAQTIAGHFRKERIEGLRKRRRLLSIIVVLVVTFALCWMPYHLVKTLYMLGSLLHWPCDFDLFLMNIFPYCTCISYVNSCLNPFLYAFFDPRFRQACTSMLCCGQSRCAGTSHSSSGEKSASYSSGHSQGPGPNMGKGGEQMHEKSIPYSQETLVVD

Molecule | EC50 [1] [nM] | EC50 (human APJ, cAMP accumulation) [nM] | also measured
5-(4- bromobenzenesulfonyl)- 2-butyl-3- [cyclopropyl(phenyl) methyl]-6-hydroxy-3,4- dihydropyrimidin-4-one [Example 186] | 10 to 100 | – | –
5-(4- bromobenzenesulfonyl)- 2-butyl-3-[(1S)-1-(3- chlorophenyl)propyl]-6- hydroxy-3,4- dihydropyrimidin-4-one [Example 188] | 10 to 100 | – | –
COC[C@@H](c1ccccc1)n1c(C2CCCO2)nc(=O)c(S(=O)(=O)c2ccc(-c3ccc(F)nc3)cc2)c1O (mixture of isomers) [Example 354, 5-[4-(6-fluoropyridin-3-yl)benzenesulfonyl]-6-hydroxy-1-[(1R)-2-methoxy-1-phenylethyl]-2-(oxolan-2-yl)-1,4-dihydropyrimidin-4-one] | – | 0.01 to 10 | –
COC[C@@H](c1ccccc1)n1c(C2CCCO2)nc(=O)c(S(=O)(=O)c2ccc(-c3ccncc3C)cc2)c1O (single isomer, unassigned) [Example 350] | – | 0.01 to 10 | –
COC[C@@H](c1ccccc1)n1c(C2CCCO2)nc(=O)c(S(=O)(=O)c2ccc(-c3ccc(F)nc3)cc2)c1O (single isomer, unassigned) [Example 358] | – | 0.01 to 10 | –
COC[C@@H](c1ccccc1)n1c(C2CCCO2)nc(=O)c(S(=O)(=O)c2ccc(-c3ccc(F)nc3)cc2)c1O (single isomer, unassigned) [Example 359] | – | 0.01 to 10 | –
CCCCc1nc(=O)c(S(=O)(=O)c2ccc(Br)cc2)c(O)n1-c1c(OC)cccc1OC [Example 1, 5-((4-Bromophenyl)sulfonyl)-2-butyl-1-(2,6-dimethoxyphenyl)-6-hydroxypyrimidin-4(1H)-one] | – | – | EC50 (HEK293 cells stably expressing human APJ receptor, inhibition of forskolin-mediated cAMP production): 0.01 to 10 nM
CCCCc1nc(=O)c(S(=O)(=O)c2ccccc2)c(O)n1-c1c(OC)cccc1OC [Example 2, 5-(benzenesulfonyl)-2-butyl-1-(2,6-dimethoxyphenyl)-6-hydroxy-1,4-dihydropyrimidin-4-one] | 0.01 to 10 | – | –
CCCCc1nc(=O)c(S(=O)(=O)c2ccc(Cl)cc2)c(O)n1-c1c(OC)cccc1OC [Example 3, 2-butyl-5-(4-chlorobenzenesulfonyl)-1-(2,6-dimethoxyphenyl)-6-hydroxy-1,4-dihydropyrimidin-4-one] | 0.01 to 10 | – | –
CCCCc1nc(=O)c(S(=O)(=O)c2ccc(F)cc2)c(O)n1-c1c(OC)cccc1OC [Example 4, 2-butyl-1-(2,6-dimethoxyphenyl)-5-(4-fluorobenzenesulfonyl)-6-hydroxy-1,4-dihydropyrimidin-4-one] | 0.01 to 10 | – | –

Now from value to molecule, other results behind:

EC50 [1] [nM] | EC50 (human APJ, cAMP accumulation) [nM] | Molecule | also measured
– | 0.01 to 10 | COC[C@@H](c1ccccc1)n1c(C2CCCO2)nc(=O)c(S(=O)(=O)c2ccc(-c3ccnc(F)c3C)cc2)c1O (mixture of isomers) [Example 353, 5-[4-(2-fluoro-3-methylpyridin-4-yl)benzenesulfonyl]-6-hydroxy-1-[(1R)-2-methoxy-1-phenylethyl]-2-(oxolan-2-yl)-1,4-dihydropyrimidin-4-one] | –
– | 0.01 to 10 | COC[C@@H](c1ccccc1)n1c(C2CCCO2)nc(=O)c(S(=O)(=O)c2ccc(-c3ccc(F)nc3C)cc2)c1O (mixture of isomers) [Example 355, 5-[4-(6-fluoro-2-methylpyridin-3-yl)benzenesulfonyl]-6-hydroxy-1-[(1R)-2-methoxy-1-phenylethyl]-2-(oxolan-2-yl)-1,4-dihydropyrimidin-4-one] | –
– | 0.01 to 10 | COC[C@@H](c1ccccc1)n1c(C2CCCO2)nc(=O)c(S(=O)(=O)c2ccc(-c3ccncc3C)cc2)c1O (single isomer, unassigned) [Example 351] | –
– | 0.01 to 10 | COC[C@@H](c1ccccc1)n1c(C2CCCO2)nc(=O)c(S(=O)(=O)c2ccc(-c3ccncc3C)cc2)c1O (single isomer, unassigned) [Example 352] | –
– | 0.01 to 10 | COC[C@@H](c1ccccc1)n1c(C2CCCO2)nc(=O)c(S(=O)(=O)c2ccc(-c3ccc(F)nc3C)cc2)c1O (single isomer, unassigned) [Example 356] | –
– | 0.01 to 10 | COC[C@@H](c1ccccc1)n1c(C2CCCO2)nc(=O)c(S(=O)(=O)c2ccc(-c3ccc(F)nc3C)cc2)c1O (single isomer, unassigned) [Example 357] | –
